Results on 21 compounds are retold here after article PMC11478287, “Design and Synthesis of Pyridyl and 2-Hydroxyphenyl Chalcones with Antitubercular Activity” (Molecules, 2024).

Data set [1] can be described thus: MDA-468 MTT cytotoxicity screening. Type of data set: cell-based. The note with it: human, MDA-MB-468 (MDA468) breast cancer cells, quadruplicate. On the procedure:
(§1) The cytotoxicity of compounds towards eukaryotic cells was determined using human liver cells (HepG2), non-tumorigenic human mammary epithelial cells (MCF-10A), and breast cancer cells (MDA-MB-468).
(§2) Cells were purchased from the American Type Culture Collection (Manassas, VA, USA). MDA-468 cells were grown in RPMI-1640 medium with 10% (v/v) heat-inactivated foetal calf serum and L-glutamine (2 mM) without phenol red. MCF-10A cells were grown in Dulbecco’s modified Eagle’s medium/ Ham’s F-12 medium (1:1) with 5% (v/v) heat-inactivated foetal calf serum, epidermal growth factor (20 ng/mL), insulin (10 µg/mL), and hydrocortisone (500 ng/mL). Cells were maintained at 37 °C, 5% CO2 / 95% air with 100% humidity and passaged every 2–3 days using trypsin EDTA solution (0.25% w/v). Adhered cells at sub confluence were harvested for experimental use. The medium was aspirated and discarded, and trypsin-EDTA solution (1% w/v, 1 mL) was added to the cells. After 30 s this was aspirated and immediately replaced by a further 1 mL of trypsin-EDTA solution. The cells were incubated at 37 °C for approximately 5 min or until the cells were visibly non-adherent. The resultant cell suspension was placed in a 25 mL sterile universal container with 10 mL of fresh medium followed by centrifugation (3 min, 3000 rpm, and 4 °C). Old medium was aspirated and replaced with 10 mL of fresh medium. To determine the density of cells in suspension, an aliquot (100 µL) was added to a trypan-blue solution (0.4% w/v, 100 µL), and the number of viable cells were determined using a Neubauer haemocytometer. The cell suspension was diluted with relevant medium to give a cell count of 2 × 10^3 cells per mL. Aliquots (100 µL) were dispensed into sterile 96-well microtitre flat-bottomed plates. For the MDA-468 and MCF-10A cell lines the plates were incubated at 37 °C, 5% CO2/95% air with 100% humidity for 24 h prior to the addition of test compounds. Test compounds were added within 30 min into the wells from a 100 mM stock solution in DMSO and serially diluted to give final concentrations of […], 0.01, 0.003, 0.001, and 0.0003 µM. […] The cells were allowed to grow for 96 h at 5%, CO2, 37 °C to give 80–90% confluence in the control wells, after which 50 µL of MTT (3-[4,5 dimethylthiazol-2-yl]-2,5-diphenyl tetrazolium bromide, 2 mg mL^−1) in sterile phosphate buffer was added to each well and the plates were further incubated for 2 h. All medium was aspirated, and the formazan precipitate generated by viable cells was solubilised by 150 µL of DMSO. All the plates were vortexed, and the absorbance at 540 nm was determined using a Molecular Devices SpectraMax M5 plate reader. Results were expressed as a percentage of the control value versus the negative logarithm of the molar drug concentration range using Graph Pad Prism. Relative toxicities of each compound within each cell line were expressed as 50% of growth inhibition (IC50). All determinations were carried out in quadruplicate.

Data set [2] concerns Mycobacterium tuberculosis H37Rv. Kind of data set: microbe, parasite or virus in culture. In kind it is cell-based. The conditions noted are these: for IC90: read-out: Anti-tubercular activity M. tuberculosis (H37Rv) IC90; for IC50: SD in brackets, read-out: Anti-tubercular activity M. tuberculosis (H37Rv) IC50 (SD).
Data set [3] is described as follows: MCF-10A MTT cytotoxicity screening. The note with it: human, MCF-10A normal breast (mammary epithelial) cells, quadruplicate, read-out: Cytotoxicity MCF10A normal breast cells IC50. In kind it is cell-based. On the procedure:
as §1, §2

The nature of data set [4]: HepG2 cytotoxicity screening (CellTiter-Glo). Type of data set: cell-based. The note with it: human, HepG2 cells; 50% decrease in viable cells after 72 h. On the procedure:
as §1
HepG2 cells were incubated with compounds for 72 h in medium containing either glucose or galactose, and cell viability was measured. The IC50 was determined as the concentration of compound causing a 50% decrease in viable cells after 72 h. Compounds were prepared as 10-point three-fold serial dilutions in DMSO. The highest concentration of compound tested was 100 µM where compounds were soluble in DMSO at 10 mM. […] HepG2 cells were cultured in complete DMEM (recipe: DMEM medium, 1X penicillin-streptomycin solution, 2 mM Corning Glutogro supplement, 1 mM sodium pyruvate, 10% v/v Fetal Bovine Serum), inoculated into 384-well assay plates and incubated for 24 h at 37 °C, 5% CO2. Compounds were added and cells were cultured for a further 72 h. The final DMSO concentration was 1%. Cell viability was determined using the CellTiter-Glo® Luminescent Cell Viability Assay (Promega, Madison, WI, USA) and measuring relative luminescent units (RLU). The dose-response curve was fitted using the Levenberg–Marquardt algorithm. The IC50 was defined as the compound concentration that produced a 50% decrease in viable cells. Each run included staurosporine as a control.

Data set [5] has as its system MDA468 breast cancer cells. The arrangement: method as in PMID 29332599. The note with it: previously reported value ref 12; read-out: Cytotoxicity MDA468 breast cancer cells IC50; cited from earlier work.
[6] abbreviates: Mycobacterium tuberculosis, H37RV, 120 h, 5-day incubation, […].

“Also recorded” adds a separate entry of the source. Read-outs that look alike come from different tables or passages of the source.

With `O=C(/C=C/c1cccc(Br)c1)c1cccnc1` [Compound 28, (E)-3-(3-bromophenyl)-1-(pyridin-3-yl)prop-2-en-1-one], the IC50 at 96 h in data set [1] turned out to be 0.7 µM; in data set [3], 5.2 µM. The IC90 in data set [2] (setting [6]) was 65 µM.
`O=C(/C=C/c1cccnc1)c1ccc(Cl)cc1` [Compound 15, (E)-1-(4-chlorophenyl)-3-(pyridin-3-yl)prop-2-en-1-one]: in data set [2] (setting [6]), the IC90 stood at 77 µM and the IC50 is 24 µM. Further, in data set [4], half-maximal inhibition (IC50 at 72 h) was put at 11 µM.
In the case of `COc1ccc(/C=C\c2cc(OC)c(OC)c(OC)c2)cc1O` [Combretastatin A-4, reference compound], the results for the IC50 at 96 h in data set [1] and in data set [3] were 0.003 µM and 0.0016 µM, respectively.
As to `Oc1ccccc1C1=NNC(c2ccc(Cl)cc2)C1` (stereo not drawn) [Compound 30, 2-(5-(4-chlorophenyl)-4,5-dihydro-1H-pyrazol-3-yl)phenol], the IC50 in data set [2] (setting [6]) is 23 µM. The compound further showed an IC50 at 72 h in data set [4] of 19.5 µM.
On to `O=C(/C=C/c1cccnc1)c1ccc(Cl)c(Cl)c1` [Compound 14, (E)-1-(3,4-dichlorophenyl)-3-(pyridin-3-yl)prop-2-en-1-one], for which, in data set [2] (setting [6]), the IC90 was determined as 28 µM and the IC50 amounted to 12 µM. This compound showed a concentration for half-maximal inhibition (IC50) at 72 h in data set [4] of 2.5 µM.
Consider `O=C(/C=C/c1cn(-c2ccccc2)nc1-c1ccccc1)c1ccccc1O` [Compound 27, (E)-3-(1,3-diphenyl-1H-pyrazol-4-yl)-1-(2-hydroxyphenyl)prop-2-en-1-one], for which the IC90 in data set [2] (5-day incubation, […]) was above 100 µM; in data set [2] (setting [6]) it was 97 to 100 µM. Moreover, the IC50 in data set [2] (setting [6]) is above 100 µM. Moreover, in data set [4], the IC50 at 72 h stood at 74 µM.
For `O=C(/C=C/c1cccnc1)c1ccc(-c2ccccc2)cc1` [Compound 21, (E)-1-([1,1′-biphenyl]-4-yl)-3-(pyridin-3-yl)prop-2-en-1-one], the IC50 at 96 h in data set [1] stood at 3.5 µM. Further, in data set [2] (setting [6]), the IC90 stood at 8.9 µM and the IC50 worked out at 3.9 µM. Further, in data set [4], the IC50 at 72 h is 4.5 µM. Besides, the IC50 at 96 h in data set [3] stood at 7 µM.
Take `O=C(/C=C/c1cccnc1)c1ccc2ccc3cccc4ccc1c2c34` [Compound 20, (E)-1-(pyren-1-yl)-3-(pyridin-3-yl)prop-2-en-1-one]: the IC50 at 96 h was 4 µM in data set [1] and 2 µM in data set [3]. Besides, the IC90 in data set [2] (setting [6]) turned out to be 22 µM. Moreover, in data set [2] (setting [6]), the IC50 turned out to be 8.8 µM. The compound also displayed an IC50 at 72 h in data set [4] of 1.8 µM.
Regarding `Oc1ccccc1C1=NNC(c2ccc(Br)cc2)C1` (stereo not drawn) [Compound 31, 2-(5-(4-bromophenyl)-4,5-dihydro-1H-pyrazol-3-yl)phenol], in data set [2] (setting [6]), the IC90 amounted to 34 µM and the IC50 came out at 23 µM. In data set [4], the IC50 at 72 h was 24.5 µM.
As for `COc1cccc(C(=O)/C=C/c2ccc(Br)cc2)c1` [Compound 25, (E)-3-(4-bromophenyl)-1-(3-methoxyphenyl)prop-2-en-1-one], in data set [2] (setting [6]), the IC90 came out at 28 µM and the IC50 came to 22 µM. For the same compound, the IC50 at 72 h in data set [4] amounted to 14 µM.
With `COc1ccccc1C(=O)/C=C/c1ccc(Br)cc1` [Compound 22], in data set [2] (setting [6]), the IC90 amounted to 59 µM and the IC50 turned out to be 44.5 µM. The compound also came in with a half-maximal inhibitory concentration (IC50) at 72 h in data set [4] of 13 µM.
Consider `O=C(/C=C/c1ccc(Cl)cc1)c1ccccc1O` [Compound 23, (E)-3-(4-chlorophenyl)-1-(2-hydroxyphenyl)prop-2-en-1-one], for which the IC90 in data set [2] (5-day incubation, […]) was above 100 µM; in data set [2] (setting [6]), 97 to 100 µM. Also, in data set [4], half-maximal inhibition (IC50 at 72 h) was put at 25 µM.
`CO[C@H]1/C=C/O[C@@]2(C)Oc3c(C)c(O)c4c(O)c(c(/C=N/N5CCN(C)CC5)c(O)c4c3C2=O)NC(=O)/C(C)=C\C=C\[C@H](C)[C@H](O)[C@@H](C)[C@@H](O)[C@@H](C)[C@H](OC(C)=O)[C@@H]1C` [Rifampicin, reference compound]: in data set [2] (setting [6]), the IC90 came to 0.0087 µM and the IC50 came to 0.0044 µM.
On to `O=C(/C=C/c1cccnc1)c1ccccc1O` [Compound 18, (E)-1-(2-hydroxyphenyl)-3-(pyridin-3-yl)prop-2-en-1-one], for which the IC50 at 96 h in data set [1] turned out to be 8 µM; in data set [3] it was 16 µM. The “Anti-tubercular activity (in words)” value in data set [2] (M. tuberculosis H37Rv) is “abolished”. In addition, the concentration for an effect of 90% (IC90) in data set [2] (setting [6]) is above 100 µM. For the same compound, the IC50 in data set [2] (setting [6]) was above 100 µM. Also, the IC50 at 72 h in data set [4] is 22 µM.
Take `Oc1ccccc1C1=NNC(c2cn(-c3ccccc3)nc2-c2ccccc2)C1` (stereo not drawn) [Compound 29, 2-(1′,3′-diphenyl-3,4-dihydro-1′H,2H-[3,4′-bipyrazol]-5-yl)phenol]: in data set [2] (29 versus 27), the “Fold more active than parent compound 27 (IC50 H37Rv)” value came to 10 fold. Besides, in data set [2] (setting [6]), the IC90 is above 25 µM and the concentration for half-maximal inhibition (IC50) was determined as 11 µM. Moreover, the IC50 at 72 h in data set [4] came to 46.5 µM.
Regarding `O=C(/C=C/c1cccnc1)c1ccc(O)cc1` [Compound 17], the figures for the IC50 at 96 h in data set [1] and in data set [3] were 30 µM and above 100 µM, respectively. Moreover, the “Anti-tubercular activity (in words)” value in data set [2] (M. tuberculosis H37Rv) is reported as “abolished”. Moreover, the IC90 in data set [2] (setting [6]) was above 100 µM. The IC50 in data set [2] (setting [6]) is above 100 µM. For the same compound, in data set [4], the IC50 at 72 h was above 100 µM.
For the compound `COc1cccc(C(=O)/C=C/c2ccc(Cl)cc2)c1` [Compound 26, (E)-3-(4-chlorophenyl)-1-(3-methoxyphenyl)prop-2-en-1-one], the IC90 in data set [2] (5-day incubation, […]) is 28 µM. In data set [2] (setting [6]), the IC90 was at least 28 µM and the IC50 stood at 20 µM. Further, in data set [4], it took 13 µM to reach half-maximal inhibition (IC50 at 72 h).
Consider `COc1cc(C(=O)/C=C/c2ccc3c(c2)OCO3)cc(OC)c1OC` [Compound 2], for which, in data set [5], the IC50 is 0.006 µM. Moreover, the “Anti-tubercular activity (in words)” value in data set [2] is on record as “did not exhibit anti-tubercular activity; also recorded: no antitubercular activity”. Moreover, the IC90 in data set [2] (Mycobacterium tuberculosis, H37RV, 120 h) was above 100 µM. For the same compound, the IC50 at 96 h in data set [3] stood at 2.3 µM.
As to `COc1cc(C(=O)/C=C/c2cccnc2)cc(OC)c1OC` [Compound 16, (E)-3-(pyridin-3-yl)-1-(3,4,5-trimethoxyphenyl)prop-2-en-1-one], in data set [1], the IC50 at 96 h was 0.7 µM. Besides, in data set [2] (setting [6]), the 90% effect concentration (IC90) is 59 µM and the IC50 was 19 µM. The IC50 at 72 h in data set [4] was determined as 2 µM. Further, the concentration for half-maximal inhibition (IC50) at 96 h in data set [3] was determined as 1.5 µM.
For `O=C(/C=C/c1cccnc1)c1c2ccccc2cc2ccccc12` [Compound 19], half-maximal inhibition in data set [1] (IC50 at 96 h) was put at 0.3 µM. In data set [2] (setting [6]), the IC90 was found to be 48 µM and the IC50 stood at 10 µM. Besides, the 50% inhibitory concentration (IC50) at 72 h in data set [4] came to 2.7 µM. Also, the IC50 at 96 h in data set [3] was 4.4 µM.
As to `O=C(/C=C/c1ccc(Br)cc1)c1ccccc1O` [Compound 24, (E)-3-(4-bromophenyl)-1-(2-hydroxyphenyl)prop-2-en-1-one], in data set [2] (setting [6]), the 90% effect concentration (IC90) is 97 µM and the IC50 is above 100 µM. The same compound yielded an IC50 at 72 h in data set [4] of 14 µM.
